Data reported in US9062899B2, “Pairs of working substances for absorption heat pumps, absorption refrigeration machines and heat transformers” (BASF SE, priority 2004, dated 2015).

Tests used:
[1] = miscibility of ionic liquid with working substance water; format: physicochemical
[2] = partial pressure of water over aqueous 2-hydroxyethylammonium formate solution, FTIR spectroscopy in the gas phase; format: physicochemical
Protocol: For this purpose, the partial pressure of water over an aqueous 2-hydroxyethylammonium formate solution was determined at a customary phase equilibrium temperature (by means of FTIR spectroscopy in the gas phase).

SMILES	miscibility with water [1]	factor by which the vapor pressure of water is reduced on dissolution in the ionic liquid [2]	partial pressure of water over the solution ([2]; 30.5° C., 84% by weight of 2-hydroxyethylammonium formate and 16% by weight of water, water itself about 40 mbar)	partial pressure of water over the solution ([2]; 34° C., 87% by weight of 2-hydroxyethylammonium formate and 13% by weight of water, water itself about 50 mbar)
CCn1cc[n+](C)c1.O=S(=O)([O-])C(F)(F)F [ethylmethylimidazolium triflate]	can be mixed with water	–	–	–
NCCO.O=CO [2-hydroxyethylammonium formate]	–	4	about 10 mbar	about 12 mbar
